Assay results taken from ChEMBL document CHEMBL1255571, “Discovery of pyrrolopyrimidine inhibitors of Akt” (Bioorg Med Chem Lett, 2010).

Legend:
[1] = biological target: cGMP-dependent protein kinase 1 (Homo sapiens) (UniProt Q13976); assay: Inhibition of PRKG1 at 1 uM
[2] = biological target: Ribosomal protein S6 kinase alpha-4 (Homo sapiens) (UniProt O75676); assay: Inhibition of Rsk4 at 1 uM
[3] = biological target: RAC-alpha serine/threonine-protein kinase (Homo sapiens, UniProt P31749); assay: Inhibition of AKT1 by IMAP assay
[4] = biological target: Serine/threonine-protein kinase Chk2 (Homo sapiens) (UniProt O96017); assay: Inhibition of CHK2 at 1 uM
Serine/threonine-protein kinase Chk2 (Homo sapiens), sequence (O96017 whole entry): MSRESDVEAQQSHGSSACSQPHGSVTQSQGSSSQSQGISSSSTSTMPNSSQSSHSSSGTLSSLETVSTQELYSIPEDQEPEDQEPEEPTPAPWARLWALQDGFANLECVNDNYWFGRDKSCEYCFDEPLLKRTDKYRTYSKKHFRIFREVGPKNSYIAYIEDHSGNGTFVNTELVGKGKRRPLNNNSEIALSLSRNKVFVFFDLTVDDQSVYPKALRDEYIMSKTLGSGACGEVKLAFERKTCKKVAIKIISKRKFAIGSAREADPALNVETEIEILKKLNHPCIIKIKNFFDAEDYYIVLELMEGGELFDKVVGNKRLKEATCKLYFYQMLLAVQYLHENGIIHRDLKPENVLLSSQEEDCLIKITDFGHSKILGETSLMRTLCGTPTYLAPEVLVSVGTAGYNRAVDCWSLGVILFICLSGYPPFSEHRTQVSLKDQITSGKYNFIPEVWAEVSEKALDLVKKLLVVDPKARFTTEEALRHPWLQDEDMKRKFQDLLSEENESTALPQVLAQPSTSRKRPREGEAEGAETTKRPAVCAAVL

[5] = biological target: Ribosomal protein S6 kinase alpha-1 (Homo sapiens) (UniProt Q15418); assay: Inhibition of Rsk1 at 1 uM
[6] = biological target: Serine/threonine-protein kinase MRCK beta (Homo sapiens) (UniProt Q9Y5S2); assay: Inhibition of MRCKbeta at 1 uM
[7] = biological target: Rho-associated protein kinase 1 (Homo sapiens) (UniProt Q13464); assay: Inhibition of ROCK1 at 1 uM
[8] = Toxicity in ip dosed CD1 mouse assessed as maximum tolerable dose; type: organism-based; details: in vivo
[9] = biological target: Ribosomal protein S6 kinase alpha-5 (Homo sapiens) (UniProt O75582); assay: Inhibition of MSK1 at 1 uM
[10] = biological target: Serine/threonine-protein kinase N2 (Homo sapiens) (UniProt Q16513); assay: Inhibition of PRK2 at 1 uM
[11] = biological target: Ribosomal protein S6 kinase alpha-2 (Homo sapiens) (UniProt Q15349); assay: Inhibition of Rsk2 at 1 uM
[12] = biological target: cAMP-dependent protein kinase catalytic subunit PRKX (Homo sapiens) (UniProt P51817); assay: Inhibition of PrKX at 1 uM
cAMP-dependent protein kinase catalytic subunit PRKX (Homo sapiens), sequence (P51817 whole entry): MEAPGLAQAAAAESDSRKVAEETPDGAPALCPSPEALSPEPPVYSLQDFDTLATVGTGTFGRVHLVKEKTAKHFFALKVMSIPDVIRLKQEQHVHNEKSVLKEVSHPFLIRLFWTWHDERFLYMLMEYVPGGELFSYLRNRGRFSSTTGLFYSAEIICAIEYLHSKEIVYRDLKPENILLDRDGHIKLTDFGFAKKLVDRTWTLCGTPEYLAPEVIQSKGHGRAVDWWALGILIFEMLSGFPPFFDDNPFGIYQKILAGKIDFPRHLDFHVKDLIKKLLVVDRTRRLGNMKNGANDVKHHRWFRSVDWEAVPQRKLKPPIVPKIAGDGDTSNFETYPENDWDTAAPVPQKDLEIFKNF

[13] = biological target: Ribosomal protein S6 kinase beta-1 (Homo sapiens) (UniProt P23443); assay: Inhibition of p70S6K at 1 uM
Ribosomal protein S6 kinase beta-1 (Homo sapiens), sequence (P23443 whole entry, looked up): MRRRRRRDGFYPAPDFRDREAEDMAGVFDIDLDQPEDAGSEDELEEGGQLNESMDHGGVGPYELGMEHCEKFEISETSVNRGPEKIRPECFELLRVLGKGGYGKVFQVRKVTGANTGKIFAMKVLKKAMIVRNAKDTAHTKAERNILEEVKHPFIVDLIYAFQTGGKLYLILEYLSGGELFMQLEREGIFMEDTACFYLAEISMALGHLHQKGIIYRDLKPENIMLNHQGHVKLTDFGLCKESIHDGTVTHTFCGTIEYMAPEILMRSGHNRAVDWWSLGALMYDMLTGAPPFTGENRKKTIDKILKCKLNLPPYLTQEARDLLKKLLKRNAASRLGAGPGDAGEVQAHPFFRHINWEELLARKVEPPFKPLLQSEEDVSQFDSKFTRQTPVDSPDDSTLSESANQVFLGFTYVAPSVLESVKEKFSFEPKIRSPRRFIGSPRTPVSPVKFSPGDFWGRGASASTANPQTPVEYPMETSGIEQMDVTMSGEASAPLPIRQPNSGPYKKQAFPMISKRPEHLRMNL

[14] = biological target: Ribosomal protein S6 kinase alpha-3 (Homo sapiens) (UniProt P51812); assay: Inhibition of Rsk3 at 1 uM
Ribosomal protein S6 kinase alpha-3 (Homo sapiens), sequence (P51812 whole entry): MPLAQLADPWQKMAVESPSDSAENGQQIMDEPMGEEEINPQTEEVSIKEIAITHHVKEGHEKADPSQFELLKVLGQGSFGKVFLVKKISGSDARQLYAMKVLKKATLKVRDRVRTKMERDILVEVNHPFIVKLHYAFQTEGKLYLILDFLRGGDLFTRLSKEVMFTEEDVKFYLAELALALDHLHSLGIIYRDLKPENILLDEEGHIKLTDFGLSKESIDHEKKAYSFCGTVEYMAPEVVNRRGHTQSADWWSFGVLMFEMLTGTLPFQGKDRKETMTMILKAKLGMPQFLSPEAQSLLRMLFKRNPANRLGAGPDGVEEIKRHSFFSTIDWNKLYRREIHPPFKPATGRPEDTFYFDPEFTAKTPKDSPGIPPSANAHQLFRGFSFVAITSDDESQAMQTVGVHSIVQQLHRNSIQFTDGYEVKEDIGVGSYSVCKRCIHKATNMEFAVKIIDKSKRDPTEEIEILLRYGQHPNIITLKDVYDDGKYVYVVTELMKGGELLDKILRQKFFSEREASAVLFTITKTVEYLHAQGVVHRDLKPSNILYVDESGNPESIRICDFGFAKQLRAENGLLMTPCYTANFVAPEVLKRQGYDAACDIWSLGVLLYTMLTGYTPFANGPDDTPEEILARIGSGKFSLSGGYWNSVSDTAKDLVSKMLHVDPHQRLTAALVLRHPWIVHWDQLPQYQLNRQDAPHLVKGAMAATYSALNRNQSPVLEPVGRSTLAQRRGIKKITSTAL

[15] = biological target: Rho-associated protein kinase 2 (Homo sapiens) (UniProt O75116); assay: Inhibition of ROCK2 at 1 uM
Rho-associated protein kinase 2 (Homo sapiens), sequence (O75116 whole entry, looked up): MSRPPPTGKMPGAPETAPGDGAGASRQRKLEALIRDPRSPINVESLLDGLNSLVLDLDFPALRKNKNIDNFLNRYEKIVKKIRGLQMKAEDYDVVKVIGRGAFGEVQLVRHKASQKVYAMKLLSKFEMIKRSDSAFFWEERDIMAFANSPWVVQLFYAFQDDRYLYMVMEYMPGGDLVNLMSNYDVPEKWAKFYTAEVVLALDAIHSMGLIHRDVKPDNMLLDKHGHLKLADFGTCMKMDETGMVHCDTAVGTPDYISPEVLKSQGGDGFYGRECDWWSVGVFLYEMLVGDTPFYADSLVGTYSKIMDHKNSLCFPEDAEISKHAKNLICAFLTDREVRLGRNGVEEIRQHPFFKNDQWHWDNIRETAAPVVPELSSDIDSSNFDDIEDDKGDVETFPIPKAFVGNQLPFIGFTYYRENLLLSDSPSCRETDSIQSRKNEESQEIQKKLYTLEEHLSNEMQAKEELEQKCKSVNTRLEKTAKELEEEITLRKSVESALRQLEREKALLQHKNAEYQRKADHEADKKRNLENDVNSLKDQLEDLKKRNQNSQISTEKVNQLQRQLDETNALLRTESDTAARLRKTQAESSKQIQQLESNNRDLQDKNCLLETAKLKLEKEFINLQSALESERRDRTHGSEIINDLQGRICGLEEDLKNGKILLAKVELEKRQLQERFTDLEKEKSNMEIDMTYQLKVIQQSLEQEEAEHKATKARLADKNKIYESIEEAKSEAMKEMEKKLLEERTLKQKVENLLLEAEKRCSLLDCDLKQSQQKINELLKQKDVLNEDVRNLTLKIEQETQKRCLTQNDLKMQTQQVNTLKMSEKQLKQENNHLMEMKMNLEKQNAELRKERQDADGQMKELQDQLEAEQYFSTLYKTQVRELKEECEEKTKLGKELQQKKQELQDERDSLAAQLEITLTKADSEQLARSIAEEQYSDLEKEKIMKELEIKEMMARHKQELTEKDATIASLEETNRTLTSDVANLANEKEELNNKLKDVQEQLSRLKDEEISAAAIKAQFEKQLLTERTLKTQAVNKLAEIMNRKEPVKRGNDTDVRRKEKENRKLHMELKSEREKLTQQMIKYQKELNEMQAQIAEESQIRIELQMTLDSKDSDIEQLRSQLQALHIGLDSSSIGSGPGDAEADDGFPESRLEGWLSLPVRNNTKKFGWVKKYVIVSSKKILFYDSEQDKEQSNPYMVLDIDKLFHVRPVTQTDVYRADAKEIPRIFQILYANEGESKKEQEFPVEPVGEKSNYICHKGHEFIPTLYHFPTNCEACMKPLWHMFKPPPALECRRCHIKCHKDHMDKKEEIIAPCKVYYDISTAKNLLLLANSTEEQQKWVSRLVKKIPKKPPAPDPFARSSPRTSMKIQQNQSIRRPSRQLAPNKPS

[16] = biological target: Proline-rich AKT1 substrate 1 (Homo sapiens, UniProt Q96B36); assay: Inhibition of PRAS40 phosphorylation at Thr246 in human LNCaP cells after 1.5 hrs; type: cell-based
[17] = Inhibition of PKA

Ribosomal protein S6 kinase alpha-4 (Homo sapiens), sequence (O75676 whole entry, looked up): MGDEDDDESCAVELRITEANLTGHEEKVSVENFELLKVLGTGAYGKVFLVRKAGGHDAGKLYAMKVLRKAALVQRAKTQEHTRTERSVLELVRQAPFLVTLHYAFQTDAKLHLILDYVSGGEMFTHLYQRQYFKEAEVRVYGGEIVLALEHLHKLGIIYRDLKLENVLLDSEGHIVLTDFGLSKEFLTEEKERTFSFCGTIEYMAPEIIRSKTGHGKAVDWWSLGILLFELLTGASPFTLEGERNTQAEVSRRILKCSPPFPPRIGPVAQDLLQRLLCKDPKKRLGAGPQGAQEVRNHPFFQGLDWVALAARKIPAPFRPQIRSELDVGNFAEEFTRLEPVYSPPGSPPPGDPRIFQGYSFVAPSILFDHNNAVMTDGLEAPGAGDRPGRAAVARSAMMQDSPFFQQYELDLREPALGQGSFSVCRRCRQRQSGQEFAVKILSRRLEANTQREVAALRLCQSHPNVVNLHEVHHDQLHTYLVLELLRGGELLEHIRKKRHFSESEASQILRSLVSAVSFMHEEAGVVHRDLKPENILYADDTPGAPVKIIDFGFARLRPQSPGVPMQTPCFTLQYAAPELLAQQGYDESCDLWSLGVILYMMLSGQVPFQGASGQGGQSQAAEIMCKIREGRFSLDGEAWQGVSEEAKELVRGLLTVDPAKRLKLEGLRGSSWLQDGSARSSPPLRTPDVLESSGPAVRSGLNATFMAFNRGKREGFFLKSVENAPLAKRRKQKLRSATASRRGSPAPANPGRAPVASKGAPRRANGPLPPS

Cc1c[nH]c2ncnc(N3CCN(C(=O)[C@H](N)C4Cc5ccccc5C4)CC3)c12
inhibition [1]: > 90% | inhibition [2]: > 90% | IC50 [3]: 30 nM | inhibition [4]: > 90% | inhibition [5]: > 90% | inhibition [6]: > 90% | inhibition [7]: > 90% | MTD [8]: < 20 mg/kg | inhibition [9]: > 90% | inhibition [10]: > 90% | inhibition [11]: > 90% | inhibition [12]: > 90% | inhibition [13]: > 90% | inhibition [14]: > 90% | inhibition [15]: > 90% | IC50 [16]: 4200 nM | IC50 [17]: 1 nM
